Reference: ChEMBL document CHEMBL4359897, “Discovery of novel functionalized 1,2,4-triazoles as PARP-1 inhibitors in breast cancer: Design, synthesis and antitumor activity evaluation” (Eur J Med Chem, 2019)
Activity calls are given as the source filed them. No cut-off for these calls is given here.

Experiments:
[1] = test system: MCF7; test: Cytotoxicity against human MCF7 cells at 2.5 to 5 uM incubated for 30 hrs by MTT assay; format: functional, cell-based
[2] = target: Poly [ADP-ribose] polymerase 1 (Homo sapiens, UniProt P09874); test: Inhibition of recombinant human full length N-terminal GST- tagged PARP1 expressed in baculovirus infected sf9 cells using Colorimetric HRP as substrate incubated for 30 mins by UV/Vis spectrophotometer analysis
Poly [ADP-ribose] polymerase 1, sequence (P09874 whole entry): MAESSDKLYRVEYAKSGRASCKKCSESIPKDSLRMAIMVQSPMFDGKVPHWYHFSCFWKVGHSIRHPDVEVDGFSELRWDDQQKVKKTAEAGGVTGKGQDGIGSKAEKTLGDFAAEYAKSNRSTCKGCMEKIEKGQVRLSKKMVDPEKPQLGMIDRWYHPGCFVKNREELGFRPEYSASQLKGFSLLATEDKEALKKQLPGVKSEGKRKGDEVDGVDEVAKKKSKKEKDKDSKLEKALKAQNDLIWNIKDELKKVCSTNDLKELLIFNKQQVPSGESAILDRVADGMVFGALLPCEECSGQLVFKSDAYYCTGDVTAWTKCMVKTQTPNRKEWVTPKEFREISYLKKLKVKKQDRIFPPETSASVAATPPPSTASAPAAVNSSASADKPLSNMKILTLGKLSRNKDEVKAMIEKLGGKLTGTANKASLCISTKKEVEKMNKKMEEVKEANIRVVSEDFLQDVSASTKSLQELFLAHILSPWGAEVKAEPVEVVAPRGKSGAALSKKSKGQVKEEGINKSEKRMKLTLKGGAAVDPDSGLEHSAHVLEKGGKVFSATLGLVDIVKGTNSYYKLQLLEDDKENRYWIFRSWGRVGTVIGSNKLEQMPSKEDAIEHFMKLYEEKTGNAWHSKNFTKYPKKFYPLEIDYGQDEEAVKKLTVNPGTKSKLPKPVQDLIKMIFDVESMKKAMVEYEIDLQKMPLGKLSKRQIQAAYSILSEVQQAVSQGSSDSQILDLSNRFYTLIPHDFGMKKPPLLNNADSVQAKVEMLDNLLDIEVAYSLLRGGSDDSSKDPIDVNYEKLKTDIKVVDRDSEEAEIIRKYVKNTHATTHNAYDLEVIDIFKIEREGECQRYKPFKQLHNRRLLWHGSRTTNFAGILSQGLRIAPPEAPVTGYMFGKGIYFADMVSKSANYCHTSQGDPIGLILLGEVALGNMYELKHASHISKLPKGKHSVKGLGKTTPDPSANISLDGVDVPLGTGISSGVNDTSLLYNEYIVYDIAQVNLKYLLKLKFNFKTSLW

[3] = test system: MCF7; test: Cytotoxicity against human MCF7 cells assessed as increase in extra cellular LDH at 2.5 to 5 uM incubated for 30 hrs by spectrophotometric based LDH assay; format: functional, cell-based
[4] = test system: MCF7; test: Inhibition of cell migration in human MCF7 cells at 2.5 to 5 uM incubated for 30 hrs by scratch wound assay relative to control; format: functional
[5] = test system: MCF7; test: Antiproliferative activity against human MCF7 cells assessed as increase in PARP1-89 protein expression at 5 uM incubated for 30 hrs by Western blot analysis; format: functional, cell-based
[6] = test system: MCF7; test: Antiproliferative activity against human MCF7 cells incubated for 30 hrs by hematoxylin staining based BrdU incorporation assay; format: functional, cell-based
[7] = test system: MCF7; test: Inhibition of cell migration in human MCF7 cells incubated for 30 hrs by scratch wound assay; format: functional, cell-based

For `O=C(c1cc(Cc2n[nH]c(=O)c3ccccc23)ccc1F)N1CCN(C(=O)C2CC2)CC1`, the Activity [1] was “Active”.
With `CC(=O)OC[C@H]1O[C@@H](Sc2nnc(-c3cc4ccccc4[nH]3)n2-c2ccccc2)[C@H](OC(C)=O)[C@@H](OC(C)=O)[C@@H]1OC(C)=O` the Activity [1] was “Active”, the IC50 [2] was 2220 nM and the Activity [3] was “Active”. The inhibition [4] was “inactive”, the Activity [5] was “inactive” and the Activity [6] was “Dose-dependent effect”.
`C=CCSc1nnc(-c2cc3ccccc3[nH]2)n1-c1ccccc1` was tested, and the Activity [1] was “Active”, the IC50 [2] was 2400 nM and the Activity [3] was “Active”. The “inhibition (INH)” value [4] was 30 - 40%, the Activity [5] was “Active” and the Activity [6] was “Dose-dependent effect”. For the same compound, the inhibition [7] was “Dose-dependent effect”.
In the case of `S=c1[nH]nc(-c2cc3ccccc3[nH]2)n1-c1ccccc1`, the Activity [1] is reported as “Active”, the IC50 [2] is reported as 2100 nM and the Activity [3] is reported as “Active”. For the same compound, the “inhibition (INH)” value [4] was 30 - 40%, the Activity [5] was “Active” and the Activity [6] was “Dose-dependent effect”. For the same compound, the inhibition [7] was “Dose-dependent effect”.
`S=c1[nH]nc(CSc2nnc(-c3cc4ccccc4[nH]3)n2-c2ccccc2)n1-c1ccccc1` was tested, and the IC50 [2] was 8080 nM and the Activity [3] was “Active”.
With `CC(O)CSc1nnc(-c2cc3ccccc3[nH]2)n1-c1ccccc1` (configuration not stated) the IC50 [2] was 330 nM and the Activity [3] was “Active”.
For `C=CCSc1nnc(-c2cc3ccccc3n2CC=C)n1-c1ccccc1`, the Activity [1] was “Active”, the IC50 [2] was 350 nM and the Activity [3] was “Active”. For the same compound, the “inhibition (INH)” value [4] was 30 - 40%, the Activity [5] was “Active” and the Activity [6] was “Dose-dependent effect”. For the same compound, the inhibition [7] was “Dose-dependent effect”.
